Key:
[1] = tested on: U87-MG; assay: IC50 cell-based assay, adherent cells, U87-MG; details: Homo sapiens, U-87 MG, Brain, glioblastoma, 72 hours, read-out: IC50 of Compounds in Adherent Cell Types
Experimental: (§1) In one embodiment, the IC50s of the compounds provided herein were determined in cell-based assays using adherent cells. In one embodiment, the activity of the compounds provided herein were determined in a cell-based assay using the triple negative breast cancer cell line MDA-MB-468. In one embodiment, the adherent cells used in the cell-based assays may be a cell type selected from Table 1. In one embodiment, the cell-based assay may be carried out as provided herein. On day 0, cells were seeded at 20,000 cells per well in 100 µL of media into individual wells of a 96-well tissue culture plate. The next day, compounds were diluted to twice the desired final concentration and added in 100 µL of media for a final volume of 200 μL. Standard solutions for each compound were prepared at 1000× concentration in DMSO. The highest concentration was 30 mM. Serial 1:1 dilutions were made from there for a 6- or 9-point curve (e.g., 30 mM, 15 mM, 7.5 mM, etc). Compounds were then diluted 1:500 in media, and 100 µL of the resulting solution was added to each well for a final dilution of 1:1000. Each concentration of compound was tested in triplicate. Cells were incubated at 37° C. with 5% CO2. After 72 hours, 20 μL of CellTiter 96 Aqueous One Solution Cell Proliferation Assay (Promega) was added to each well. Cells were placed back in the incubator, and the absorbance at 490 nm was read after 2-3 hours. The concentration of compound that decreased the number of metabolically active cells by 50% was determined and reported as the IC50. “Percent Viability” was determined by subtracting the average background value (media only) and expressed as a ratio to the average value obtained from cells treated with only DMSO.

[2] = tested on: SKBR-3; assay: IC50 cell-based assay, adherent cells, SKBR-3; details: Homo sapiens, SK-BR-3, Breast, ER−, 72 hours, read-out: IC50 of Compounds in Adherent Cell Types
Experimental: as §1

[3] = tested on: MDA-MB-361; assay: IC50 cell-based assay, adherent cells, MDA-MB-361; details: Homo sapiens, Breast, Brain met Her2-neu + ER +, 72 hours, read-out: IC50 of Compounds in Adherent Cell Types
Experimental: as §1

[4] = tested on: MDA-MB-231; assay: IC50 cell-based assay, adherent cells, MDA-MB-231; details: Homo sapiens, Breast, triple neg, 72 hours, read-out: IC50 of Compounds in Adherent Cell Types
Experimental: as §1

[5] = tested on: HT-29; assay: IC50 cell-based assay, adherent cells, HT-29; details: Homo sapiens, Colorectal, adenocarcinoma, 72 hours, read-out: IC50 of Compounds in Adherent Cell Types
Experimental: as §1

[6] = tested on: Hep-G2; assay: IC50 cell-based assay, adherent cells, Hep-G2; details: Homo sapiens, HepG2, Liver, hepatocellular carcinoma, 72 hours, read-out: IC50 of Compounds in Adherent Cell Types
Experimental: as §1

[7] = tested on: A549; assay: IC50 cell-based assay, adherent cells, A549; details: Homo sapiens, Lung, NSCLC, 72 hours, read-out: IC50 of Compounds in Adherent Cell Types
Experimental: as §1

[8] = tested on: H-460; assay: IC50 cell-based assay, adherent cells, H-460; details: Homo sapiens, NCI-H460, Lung, large cell carcinoma, 72 hours, read-out: IC50 of Compounds in Adherent Cell Types
Experimental: as §1

[9] = tested on: OVCAR-3; assay: IC50 cell-based assay, adherent cells, OVCAR-3; details: Homo sapiens, Ovarian, adenocarcinoma, 72 hours, read-out: IC50 of Compounds in Adherent Cell Types
Experimental: as §1

[10] = tested on: HL-60; assay: IC50 cell-based assay, suspension cells, HL-60; details: Homo sapiens, Leukemia, AML, read-out: IC50 of Compounds in Suspension Cell Types
Experimental: as §1
(§2) In one embodiment, the IC50s of the compounds provided herein were determined in cell-based assays using suspension cells. In one embodiment, the activity of the compounds provided herein were determined in a cell-based assay using the JeKo-1 cell line (mantle cell lymphoma) or the Pfeiffer cell line (diffuse large B-cell lymphoma). In one embodiment, the suspension cells used in the cell-based assays may be a cell type selected from Table 2. Assays with suspension cells were similar except that 40,000-60,000 cells were added to each well and compounds were added immediately after cell plating.

[11] = tested on: Nalm-6-VR; assay: IC50 cell-based assay, suspension cells, Nalm-6-VR; details: Leukemia, B-ALL, Vincristine resistant, read-out: IC50 of Compounds in Suspension Cell Types
Experimental: as §1, §2

[12] = tested on: SupB15; assay: IC50 cell-based assay, suspension cells, SupB15; details: Homo sapiens, SUP-B15, Leukemia, B-ALL (Philadelphia chromosome+), read-out: IC50 of Compounds in Suspension Cell Types
Experimental: as §1, §2

[13] = tested on: Pfeiffer; assay: IC50 cell-based assay, suspension cells, Pfeiffer; details: Homo sapiens, Lymphoma, Diffuse large b-cell, read-out: IC50 of Compounds in Suspension Cell Types
Experimental: as §1, §2

[14] = Percent weight change of animals in MDA-MB-468 xenograft study; type: in vivo, Mouse/SCID; details: SCID mice
Experimental: In one embodiment, the effects of a compound provided herein on tumor growth in a mouse animal model were evaluated. In specific embodiments, the mouse animal model was the MDA-MB-468 xenograft model for breast cancer. Studies were performed to evaluate the effect of a compound provided herein on the growth of MDA-MB-468 breast tumors in mice. The test system that was used is summarized below:
Exemplary Protocol: Ten mice per group were inoculated s.c. on the left flank with 5×10^6 MDA-MB-468 cells. When tumors reached a mean volume of 100 or 200 mm^3, animals began treatment with a compound provided herein (See Table 4). Test article or vehicle were given once daily by IP injection for up to 21 days. Tumors were evaluated every Monday, Wednesday and Friday, body weights and condition were evaluated on a daily basis.
Animal Weight: All animals were weighed […] throughout the study. Group weight change was expressed as a daily group mean weight. Animals that lost greater than 20% of their total starting body weight were euthanized.
Compound 1 was dosed in mice at a dose of, for example, qd 50 mg/kg, for 22 days or more.
Compound 2 was dosed in mice at a dose of, for example, qd 20 mg/kg from day 0 to 7, then qd 10 mg/kg from day 8 and thereafter, for 22 days or more.

O=C(Nc1cc(C(F)(F)F)cc(C(F)(F)F)c1)c1cc(-c2ccccc2)oc1C(F)(F)F [Compound 1, 5-Phenyl-2-trifluoromethyl-furan-3-carboxylic acid (3,5-bis-trifluoromethyl-phenyl)-amide]
IC50 [1]: < 5 µM
IC50 [2]: < 5 µM
IC50 [3]: < 5 µM
IC50 [4]: < 5 µM
IC50 [5]: < 5 µM
IC50 [6]: 5 to 10 µM
IC50 [7]: < 5 µM
IC50 [8]: 10 to 20 µM
IC50 [9]: < 5 µM
IC50 [10]: < 5 µM
IC50 [11]: < 5 µM
IC50 [12]: < 5 µM
IC50 [13]: < 5 µM
Percent Weight Change of Control and Treated Animals, mean ([14]; Day 1, qd 50 mg/kg IP): 0.00%
Percent Weight Change of Control and Treated Animals, mean ([14]; Day 2, qd 50 mg/kg IP): −0.44%
Percent Weight Change of Control and Treated Animals, mean ([14]; Day 3, qd 50 mg/kg IP): −1.43%
Percent Weight Change of Control and Treated Animals, mean ([14]; Day 4, qd 50 mg/kg IP): −2.23%
Percent Weight Change of Control and Treated Animals, mean ([14]; Day 5, qd 50 mg/kg IP): −2.06%
Percent Weight Change of Control and Treated Animals, mean ([14]; Day 6, qd 50 mg/kg IP): −2.03%
Percent Weight Change of Control and Treated Animals, mean ([14]; Day 7, qd 50 mg/kg IP): −3.50%
Percent Weight Change of Control and Treated Animals, mean ([14]; Day 8, qd 50 mg/kg IP): −4.53%
Percent Weight Change of Control and Treated Animals, mean ([14]; Day 9, qd 50 mg/kg IP): −2.38%
Percent Weight Change of Control and Treated Animals, mean ([14]; Day 10, qd 50 mg/kg IP): −3.42%
Percent Weight Change of Control and Treated Animals, mean ([14]; Day 11, qd 50 mg/kg IP): −1.63%
Percent Weight Change of Control and Treated Animals, mean ([14]; Day 12, qd 50 mg/kg IP): 1.40%
Percent Weight Change of Control and Treated Animals, mean ([14]; Day 13, qd 50 mg/kg IP): 1.13%
Percent Weight Change of Control and Treated Animals, mean ([14]; Day 14, qd 50 mg/kg IP): −0.56%
Percent Weight Change of Control and Treated Animals, mean ([14]; Day 15, qd 50 mg/kg IP): 2.28%
Percent Weight Change of Control and Treated Animals, mean ([14]; Day 16, qd 50 mg/kg IP): 2.07%
Percent Weight Change of Control and Treated Animals, mean ([14]; Day 17, qd 50 mg/kg IP): 2.03%
Percent Weight Change of Control and Treated Animals, mean ([14]; Day 18, qd 50 mg/kg IP): 2.87%
Percent Weight Change of Control and Treated Animals, mean ([14]; Day 19, qd 50 mg/kg IP): 4.84%
Percent Weight Change of Control and Treated Animals, mean ([14]; Day 20, qd 50 mg/kg IP): 0.92%
Percent Weight Change of Control and Treated Animals, mean ([14]; Day 21, qd 50 mg/kg IP): 1.87%
Percent Weight Change of Control and Treated Animals, mean ([14]; Day 22, qd 50 mg/kg IP): 0.07%

O=C(Nc1cc(C(F)(F)F)cc(C(F)(F)F)c1)c1cc(-c2ccc(Cl)cc2)oc1C(F)(F)F [Compound 2, 5-(4-Chlorophenyl)-N-(3,5-bistrifluoromethylphenyl)-2-trifluoromethylfuran-3-carboxamide]
IC50 [1]: 5 to 10 µM
IC50 [2]: < 5 µM
IC50 [3]: < 5 µM
IC50 [4]: < 5 µM
IC50 [5]: 5 to 10 µM
IC50 [6]: 5 to 10 µM
IC50 [7]: 5 to 10 µM
IC50 [8]: > 20 µM
IC50 [9]: 5 to 10 µM
IC50 [10]: < 5 µM
IC50 [11]: < 5 µM
IC50 [12]: < 5 µM
IC50 [13]: < 5 µM
Percent Weight Change of Control and Treated Animals, mean ([14]; Day 1, qd 20 mg/kg days 0 to 7, then qd 10 mg/kg day 8 and thereafter, IP): 0.00%
Percent Weight Change of Control and Treated Animals, mean ([14]; Day 2, qd 20 mg/kg days 0 to 7, then qd 10 mg/kg day 8 and thereafter, IP): −1.11%
Percent Weight Change of Control and Treated Animals, mean ([14]; Day 3, qd 20 mg/kg days 0 to 7, then qd 10 mg/kg day 8 and thereafter, IP): −2.65%
Percent Weight Change of Control and Treated Animals, mean ([14]; Day 4, qd 20 mg/kg days 0 to 7, then qd 10 mg/kg day 8 and thereafter, IP): −3.35%
Percent Weight Change of Control and Treated Animals, mean ([14]; Day 5, qd 20 mg/kg days 0 to 7, then qd 10 mg/kg day 8 and thereafter, IP): −3.84%
Percent Weight Change of Control and Treated Animals, mean ([14]; Day 6, qd 20 mg/kg days 0 to 7, then qd 10 mg/kg day 8 and thereafter, IP): −1.98%
Percent Weight Change of Control and Treated Animals, mean ([14]; Day 7, qd 20 mg/kg days 0 to 7, then qd 10 mg/kg day 8 and thereafter, IP): −3.25%
Percent Weight Change of Control and Treated Animals, mean ([14]; Day 8, qd 20 mg/kg days 0 to 7, then qd 10 mg/kg day 8 and thereafter, IP): −5.29%
Percent Weight Change of Control and Treated Animals, mean ([14]; Day 9, qd 20 mg/kg days 0 to 7, then qd 10 mg/kg day 8 and thereafter, IP): −3.91%
Percent Weight Change of Control and Treated Animals, mean ([14]; Day 10, qd 20 mg/kg days 0 to 7, then qd 10 mg/kg day 8 and thereafter, IP): −6.29%
Percent Weight Change of Control and Treated Animals, mean ([14]; Day 11, qd 20 mg/kg days 0 to 7, then qd 10 mg/kg day 8 and thereafter, IP): −3.98%
Percent Weight Change of Control and Treated Animals, mean ([14]; Day 12, qd 20 mg/kg days 0 to 7, then qd 10 mg/kg day 8 and thereafter, IP): −1.48%
Percent Weight Change of Control and Treated Animals, mean ([14]; Day 13, qd 20 mg/kg days 0 to 7, then qd 10 mg/kg day 8 and thereafter, IP): −1.39%
Percent Weight Change of Control and Treated Animals, mean ([14]; Day 14, qd 20 mg/kg days 0 to 7, then qd 10 mg/kg day 8 and thereafter, IP): −2.75%
Percent Weight Change of Control and Treated Animals, mean ([14]; Day 15, qd 20 mg/kg days 0 to 7, then qd 10 mg/kg day 8 and thereafter, IP): −0.49%
Percent Weight Change of Control and Treated Animals, mean ([14]; Day 16, qd 20 mg/kg days 0 to 7, then qd 10 mg/kg day 8 and thereafter, IP): −1.04%
Percent Weight Change of Control and Treated Animals, mean ([14]; Day 17, qd 20 mg/kg days 0 to 7, then qd 10 mg/kg day 8 and thereafter, IP): −0.16%
Percent Weight Change of Control and Treated Animals, mean ([14]; Day 18, qd 20 mg/kg days 0 to 7, then qd 10 mg/kg day 8 and thereafter, IP): 0.96%
Percent Weight Change of Control and Treated Animals, mean ([14]; Day 19, qd 20 mg/kg days 0 to 7, then qd 10 mg/kg day 8 and thereafter, IP): −0.20%
Percent Weight Change of Control and Treated Animals, mean ([14]; Day 20, qd 20 mg/kg days 0 to 7, then qd 10 mg/kg day 8 and thereafter, IP): −1.98%
Percent Weight Change of Control and Treated Animals, mean ([14]; Day 21, qd 20 mg/kg days 0 to 7, then qd 10 mg/kg day 8 and thereafter, IP): −0.19%
Percent Weight Change of Control and Treated Animals, mean ([14]; Day 22, qd 20 mg/kg days 0 to 7, then qd 10 mg/kg day 8 and thereafter, IP): −0.65%

Reference: patent US8722731B2, “Furanyl compounds and the use thereof” (NovoMedix, LLC, priority 2010, dated 2014)
